Assay results: ChEMBL document CHEMBL1201862, “PubChem BioAssay data set” (2004)
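Five concentrations, 48 hours, 96-well plates. The concentration for 50% growth inhibition is given as GI50.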 Activity calls are given as the source filed them. No stated cut-off is given here; in the data, active = GI50 up to about 1.1 µM and inactive = higher.

Experiments:
Test in all cases: DTP human tumour cell line panel, 48 h
786-0 = test system: 786-0
A498 = test system: A498
A549 = test system: A549
ACHN = test system: ACHN
BT-549 = test system: BT-549
CAKI-1 = test system: CAKI-1
COLO 205 = test system: COLO 205
DU-145 = test system: DU-145
EKVX = test system: EKVX
HCC 2998 = test system: HCC 2998
HCT-116 = test system: HCT-116
HCT-15 = test system: HCT-15
HOP-62 = test system: HOP-62
HOP-92 = test system: HOP-92
HT-29 = test system: HT-29
Hs-578T = test system: Hs-578T
IGROV-1 = test system: IGROV-1
KM12 = test system: KM12
LOX IMVI = test system: LOX IMVI
M14 = test system: M14
MCF7 = test system: MCF7
MDA-MB-231 = test system: MDA-MB-231
MDA-MB-435 = test system: MDA-MB-435
MDA-N = test system: MDA-N
Malme-3M = test system: Malme-3M
NCI-H226 = test system: NCI-H226
NCI-H23 = test system: NCI-H23
NCI-H460 = test system: NCI-H460
NCI-H522 = test system: NCI-H522
NCI/ADR-RES = test system: NCI/ADR-RES
OVCAR-3 = test system: OVCAR-3
OVCAR-4 = test system: OVCAR-4
OVCAR-5 = test system: OVCAR-5
OVCAR-8 = test system: OVCAR-8
PC-3 = test system: PC-3
RPMI-8226 = test system: RPMI-8226
RXF 393 = test system: RXF 393
SF-268 = test system: SF-268
SF-295 = test system: SF-295
SF-539 = test system: SF-539
SK-MEL-28 = test system: SK-MEL-28
SK-MEL-2 = test system: SK-MEL-2
SK-MEL-5 = test system: SK-MEL-5
SK-OV-3 = test system: SK-OV-3
SN12C = test system: SN12C
SNB-19 = test system: SNB-19
SNB-75 = test system: SNB-75
SW-620 = test system: SW-620
T47D = test system: T47D
TK-10 = test system: TK-10
U-251 = test system: U-251
UACC-257 = test system: UACC-257
UACC-62 = test system: UACC-62
UO-31 = test system: UO-31
K562 = test system: K562
MOLT-4 = test system: MOLT-4
CCRF-CEM = test system: CCRF-CEM

O=C(c1ccccc1)c1ccc2c(c1)nc1n2C(c2c(F)cccc2F)SC1 (stereo not drawn)
GI50 (786-0): 27.4 µM (inactive)
GI50 (A498): 19.5 µM (inactive)
GI50 (A549): 22 µM (inactive)
GI50 (ACHN): 28.8 µM (inactive)
GI50 (BT-549): 26.7 µM (inactive)
GI50 (CAKI-1): 21.1 µM (inactive)
GI50 (COLO 205): 24.1 µM (inactive)
GI50 (DU-145): 40.5 µM (inactive)
GI50 (EKVX): 11.5 µM (inactive)
GI50 (HCC 2998): 36.5 µM (inactive)
GI50 (HCT-116): 15 µM (inactive)
GI50 (HCT-15): 36.6 µM
GI50 (HOP-62): 34 µM (inactive)
GI50 (HOP-92): 40.5 µM (inactive)
GI50 (HT-29): 13 µM (inactive)
GI50 (Hs-578T): 59 µM (inactive)
GI50 (IGROV-1): 52.4 µM (inactive)
GI50 (KM12): 11.2 µM (inactive)
GI50 (LOX IMVI): 25.6 µM (inactive)
GI50 (M14): 20.8 µM (inactive)
GI50 (MCF7): 26.5 µM (inactive)
GI50 (MDA-MB-231): 41.9 µM (inactive)
GI50 (MDA-MB-435): 27.3 µM (inactive)
GI50 (MDA-N): 19.7 µM (inactive)
GI50 (Malme-3M): 31.2 µM (inactive)
GI50 (NCI-H226): 34.8 µM (inactive)
GI50 (NCI-H23): 28.8 µM (inactive)
GI50 (NCI-H460): 17.1 µM (inactive)
GI50 (NCI-H522): 34.7 µM (inactive)
GI50 (NCI/ADR-RES): 29.9 µM (inactive)
GI50 (OVCAR-3): 19.9 µM (inactive)
GI50 (OVCAR-4): 21.7 µM (inactive)
GI50 (OVCAR-5): 25.8 µM (inactive)
GI50 (OVCAR-8): 24.5 µM (inactive)
GI50 (PC-3): 16.3 µM (inactive)
GI50 (RPMI-8226): 30.3 µM (inactive)
GI50 (RXF 393): 29 µM (inactive)
GI50 (SF-268): 49.9 µM (inactive)
GI50 (SF-295): 17.9 µM (inactive)
GI50 (SF-539): 28.6 µM (inactive)
GI50 (SK-MEL-28): 32.1 µM (inactive)
GI50 (SK-MEL-2): 18.5 µM (inactive)
GI50 (SK-MEL-5): 12.9 µM (inactive)
GI50 (SK-OV-3): 30.5 µM (inactive)
GI50 (SN12C): 18.7 µM (inactive)
GI50 (SNB-19): 32.1 µM (inactive)
GI50 (SNB-75): 18.9 µM (inactive)
GI50 (SW-620): 37.2 µM (inactive)
GI50 (T47D): 4.71 µM (inactive)
GI50 (TK-10): 39.2 µM (inactive)
GI50 (U-251): 28.8 µM (inactive)
GI50 (UACC-257): 29.6 µM (inactive)
GI50 (UACC-62): 15.5 µM (inactive)
GI50 (UO-31): 11.6 µM (inactive)

N#CC(Cc1ccccc1)N(CCC1=CCCCC1)Cc1ccccc1 (stereo not drawn)
GI50 (786-0): > 100 µM (inactive)
GI50 (A498): > 100 µM (inactive)
GI50 (A549): 54.7 µM (inactive)
GI50 (ACHN): > 100 µM (inactive)
GI50 (BT-549): 71.9 µM (inactive)
GI50 (CAKI-1): > 100 µM (inactive)
GI50 (COLO 205): 23.4 µM (inactive)
GI50 (DU-145): > 100 µM (inactive)
GI50 (EKVX): 56.5 µM (inactive)
GI50 (HCC 2998): 28.4 µM (inactive)
GI50 (HCT-116): 36.8 µM (inactive)
GI50 (HCT-15): 42.9 µM
GI50 (HOP-62): > 100 µM (inactive)
GI50 (HOP-92): 35.1 µM (inactive)
GI50 (HT-29): 32.2 µM (inactive)
GI50 (Hs-578T): > 100 µM (inactive)
GI50 (IGROV-1): 81.1 µM (inactive)
GI50 (K562): 54.1 µM (inactive)
GI50 (KM12): 43.1 µM (inactive)
GI50 (M14): 44.6 µM (inactive)
GI50 (MCF7): 31.2 µM (inactive)
GI50 (MDA-MB-231): > 100 µM (inactive)
GI50 (MDA-MB-435): 22 µM (inactive)
GI50 (MDA-N): 32.4 µM (inactive)
GI50 (MOLT-4): 22.3 µM (inactive)
GI50 (Malme-3M): 40.8 µM (inactive)
GI50 (NCI-H23): 56.8 µM (inactive)
GI50 (NCI-H460): 62.2 µM (inactive)
GI50 (NCI-H522): 25.3 µM (inactive)
GI50 (NCI/ADR-RES): 59.6 µM (inactive)
GI50 (OVCAR-3): 81.7 µM (inactive)
GI50 (OVCAR-4): 83.9 µM (inactive)
GI50 (OVCAR-5): 97.7 µM (inactive)
GI50 (OVCAR-8): 72.1 µM (inactive)
GI50 (PC-3): 51.1 µM (inactive)
GI50 (RPMI-8226): 17.9 µM (inactive)
GI50 (RXF 393): 46.1 µM (inactive)
GI50 (SF-268): > 100 µM (inactive)
GI50 (SF-295): 61.5 µM (inactive)
GI50 (SK-MEL-28): 68.4 µM (inactive)
GI50 (SK-MEL-2): 57.8 µM (inactive)
GI50 (SK-MEL-5): 22.3 µM (inactive)
GI50 (SK-OV-3): > 100 µM (inactive)
GI50 (SNB-19): > 100 µM (inactive)
GI50 (SNB-75): 61 µM (inactive)
GI50 (SW-620): 41.1 µM (inactive)
GI50 (T47D): 47.3 µM (inactive)
GI50 (TK-10): > 100 µM (inactive)
GI50 (U-251): 81.7 µM (inactive)
GI50 (UACC-257): 43.8 µM (inactive)
GI50 (UACC-62): 81.3 µM (inactive)
GI50 (UO-31): > 100 µM (inactive)

C/C(=N\c1cccc(Cl)c1)c1ccncc1
GI50 (786-0): > 100 µM (inactive)
GI50 (A498): > 100 µM (inactive)
GI50 (A549): > 100 µM (inactive)
GI50 (ACHN): > 100 µM (inactive)
GI50 (BT-549): > 100 µM (inactive)
GI50 (CAKI-1): > 100 µM (inactive)
GI50 (CCRF-CEM): > 100 µM (inactive)
GI50 (COLO 205): > 100 µM (inactive)
GI50 (DU-145): > 100 µM (inactive)
GI50 (EKVX): > 100 µM (inactive)
GI50 (HCC 2998): > 100 µM (inactive)
GI50 (HCT-116): > 100 µM (inactive)
GI50 (HCT-15): > 100 µM
GI50 (HOP-62): > 100 µM (inactive)
GI50 (HOP-92): > 100 µM (inactive)
GI50 (HT-29): > 100 µM (inactive)
GI50 (Hs-578T): > 100 µM (inactive)
GI50 (IGROV-1): > 100 µM (inactive)
GI50 (K562): > 100 µM (inactive)
GI50 (KM12): > 100 µM (inactive)
GI50 (LOX IMVI): > 100 µM (inactive)
GI50 (M14): > 100 µM (inactive)
GI50 (MCF7): > 100 µM (inactive)
GI50 (MDA-MB-231): > 100 µM (inactive)
GI50 (MDA-MB-435): > 100 µM (inactive)
GI50 (MDA-N): > 100 µM (inactive)
GI50 (MOLT-4): > 100 µM (inactive)
GI50 (Malme-3M): > 100 µM (inactive)
GI50 (NCI-H226): > 100 µM (inactive)
GI50 (NCI-H23): > 100 µM (inactive)
GI50 (NCI-H460): > 100 µM (inactive)
GI50 (NCI-H522): > 100 µM (inactive)
GI50 (NCI/ADR-RES): > 100 µM (inactive)
GI50 (OVCAR-3): > 100 µM (inactive)
GI50 (OVCAR-4): > 100 µM (inactive)
GI50 (OVCAR-5): > 100 µM (inactive)
GI50 (OVCAR-8): > 100 µM (inactive)
GI50 (PC-3): > 100 µM (inactive)
GI50 (RPMI-8226): > 100 µM (inactive)
GI50 (RXF 393): > 100 µM (inactive)
GI50 (SF-268): 14.6 µM (inactive)
GI50 (SF-295): > 100 µM (inactive)
GI50 (SF-539): > 100 µM (inactive)
GI50 (SK-MEL-28): > 100 µM (inactive)
GI50 (SK-MEL-2): > 100 µM (inactive)
GI50 (SK-MEL-5): > 100 µM (inactive)
GI50 (SK-OV-3): > 100 µM (inactive)
GI50 (SN12C): > 100 µM (inactive)
GI50 (SNB-19): > 100 µM (inactive)
GI50 (SNB-75): > 100 µM (inactive)
GI50 (SW-620): > 100 µM (inactive)
GI50 (T47D): > 100 µM (inactive)
GI50 (TK-10): > 100 µM (inactive)
GI50 (U-251): > 100 µM (inactive)
GI50 (UACC-257): > 10 µM (inactive)
GI50 (UACC-62): 28.3 µM (inactive)
GI50 (UO-31): > 100 µM (inactive)
